Measured values taken from PubChem BioAssay AID1117344.
Activity calls are given as the source filed them. The rule behind the calls is not given here.

test system: NCI-H716 cells, GLP-1 secretion; assay: potency on glucagon-like peptide-1 release, NCI-H716 cell line, dose-response curve, half-maximal inhibitory concentration (AID 1117344)

SMILES | IC50
CCCCCCCCCCCC(=O)[O][Sn]([CH2]CCC)([CH2]CCC)[O]C(=O)CCCCCCCCCCC | > 40 µM (inactive)
OCCN1CCN(CC/C=C2/c3ccccc3Sc3ccc(C(F)(F)F)cc32)CC1 | 32.2 µM (inactive)
Cc1ccc([N+](=O)[O-])[c]2c1[O][Hg]2 | 9.87 µM (inactive)
CCCCCCCCCCCCCC[N+](C)(C)C | 18.6 µM (inactive)
CC(=O)[O][Hg][c]1ccccc1 | 9.57 µM (inactive)
